Results reported in patent publication US9603896B2, “Peptide compounds and methods of production and use thereof” (priority 2012, dated 2017).
Like-named read-outs stand apart in the source and are kept apart here. Square brackets hold non-standard residues; d marks the D form. Ends that are not written are not given here. Peptide text beside a SMILES is read from it. AEEA = NCCOCCOCC(=O)O

Columns and labels:
[1] = test system: E. coli ATCC® strain 25922™; type: cell-based, Escherichia coli; design: Effects of Peptide Compounds on Escherichia coli ATCC ® 25922 ™: unit not given here; settings: Table 6, 5 × 10^3 CFU/ml unless italicized = 1 × 10^5 CFU/ml
Method: (§1) The three peptide compounds BCC01-5RMP (SEQ ID NO:21), BCC02-5RMP (SEQ ID NO:22), and BCC03-5RMP (SEQ ID NO:23) were assayed for in vitro bactericidal activity against Pseudomonas aeruginosa, Escherichia coli, Salmonella typhimurium, and Acinetobacter baumannii. […] The CFU remaining at the end of 60 to 180 minute incubation was determined, and the data plotted as a log reduction in CFU/ml.
(§2) Tables 4-6 show the results of various peptides and peptide compounds against P. aeruginosa and E. coli strains. Tables 4 and 5 show the results of an investigation of the effects of peptide or peptide compounds BCC03-5RMP (SEQ ID NO:23), BCC03-MP (SEQ ID NO:24) and BCC03-5R (SEQ ID NO:20) against P. aeruginosa ATCC® strain 27853™ and E. coli ATCC® strain 25922™ (American Type Culture Collection, Manassas, Va.). […] Table 6 compares the activity of several other compounds, including the “5R” versions of BCC01, i.e., SEQ ID NO:18 (which comprises SEQ ID NO:1 with five additional arginines), the “5R” version of BCC02 (i.e., SEQ ID NO:19, which comprises SEQ ID NO:2 with five additional arginines), and BCC03-5RMP (SEQ ID NO:23), and BCC03-MP (SEQ ID NO:24, i.e., without the five additional R residues). The data generally indicate the superiority of BCC03-5RMP (SEQ ID NO:23) against E. coli, and the superiority of the 5R or 5RMP versions of the peptide over the “AEEA only” peptide against P. aeruginosa.

[2] = test system: Pseudomonas aeruginosa ATCC® 27853™; type: cell-based; settings: for Effects of Peptide Compounds on Pseudomonas aeruginosa ATCC ® 27853 ™: Table 6, 5 × 10^3 CFU/ml unless italicized = 1 × 10^5 CFU/ml
Method: as §1, §2
For FIGS. 10-13, in vitro bactericidal assays were performed using a starting inoculum of 1×10^6 CFU/ml of the bacterial suspension. The CFU remaining at the end of the 60-180 minute incubation was determined, and the data was plotted as log reduction in CFU/ml.
In particular, each of the test peptides (CAP37 peptides 120-146WR, 120-146WH, and 95-122 (SEQ ID NOs: 30, 31, and 26, respectively)) was used at 25, 12.5, 6.25, and 3.12 μM. Gentamicin was used at 4 μg/ml. 1×10^6/ml Acinetobacter baumannii ATCC® BAA-747″ or Pseudomonas aeruginosa ATCC® 27853™ (American Type Culture Collection, Manassas, Va.) were incubated with the peptides, negative buffer control (tryptone saline), and positive control gentamicin at pH 5.5 or 7.2. A 60 minute incubation was used for Acinetobacter baumannii ATCC® BAA747™, while a 180 minute incubation was used for Pseudomonas aeruginosa ATCC® 27853™. 50 μl aliquots were plated out on agar plates and incubated overnight. Colony forming units were counted after overnight incubation and CFU/ml calculated.
For FIG. 14, 1×10^6/ml Pseudomonas aeruginosa ATCC® 27853™ were incubated with each of the test peptides (CAP37 peptides 120-146WR, 120-146WH, 120-146QR, 120-146QH, 120-146QR-5RMP, and 120-146QH-5RMP (SEQ ID NOs: 30, 31, 28, 29, 32, and 33, respectively)) at 150, 75, and 37.5 μg/ml, or negative buffer control (tryptone saline), for 180 minutes at pH 5.5. 50 μl aliquots were plated out on agar plates and incubated overnight. Colony forming units were counted after overnight incubation and CFU/ml calculated.

swine skin = test: Swine full thickness excisional dermal wound model; type: in vivo; settings: for Mean Wound Healing (%): topical 3 mg/ml, 0.20 ml per wound daily
Method: In this Example, peptide compounds of the presently disclosed and claimed inventive concept(s) were evaluated as to their activity on the dermal wound healing process in a clinically relevant swine full thickness excisional wound model. Three different peptide formulations (Group B, Peptide 95-122 (SEQ ID NO:26); Group C, Peptide 120-146WH (SEQ ID NO:31); and Group D, Peptide 120-146QH-5RMP (SEQ ID NO:33)) were each evaluated at the same concentration (3 mg/ml). Sterile saline served as the control (Group A).
Full thickness excisional wounds were induced on the dorsum of swine (N=3) using a 1.0 cm biopsy punch. Treatments were administered (0.20 ml) to each wound (N=6 wounds per group), and the wounds were dressed with standard occlusive dressing ([…]™, 3M Corporation, St. Paul, Minn.). Treatments were reapplied daily and dressings changed. Clinical wound healing observations and wound area (2 mm) measurements were performed on days 0, 3, 5, 7, 10, and 14 post-wounding. Wound area (2 mm) data were expressed as percentage (%) of wound healing. Animals were terminated on day 14 with wounds harvested and processed for histological evaluation. […] All peptide formulation treatment groups healed faster with greater rate of closure and re-epithelialization over time, as compared to the saline control (Group A).

[3] = wounds harvested day 14, 3 mg/ml topical

Molecule | Effects of Peptide Compounds on Escherichia coli ATCC ® 25922 ™ ([1]; 12.5 μg/ml) | Effects of Peptide Compounds on Escherichia coli ATCC ® 25922 ™ ([1]; 25 μg/ml) | Effects of Peptide Compounds on Escherichia coli ATCC ® 25922 ™ ([1]; 50 μg/ml) | Effects of Peptide Compounds on Escherichia coli ATCC ® 25922 ™ ([1]; 100 μg/ml) | Effects of Peptide Compounds on Escherichia coli ATCC ® 25922 ™ ([1]; 200 μg/ml) | Effects of Peptide Compounds on Escherichia coli ATCC ® 25922 ™ ([1]; 400 μg/ml) | Effects of Peptide Compounds on Pseudomonas aeruginosa ATCC ® 27853 ™ ([2]; 6.25 μg/ml) | Effects of Peptide Compounds on Pseudomonas aeruginosa ATCC ® 27853 ™ ([2]; 12.5 μg/ml) | Effects of Peptide Compounds on Pseudomonas aeruginosa ATCC ® 27853 ™ ([2]; 25 μg/ml) | Effects of Peptide Compounds on Pseudomonas aeruginosa ATCC ® 27853 ™ ([2]; 50 μg/ml) | Effects of Peptide Compounds on Pseudomonas aeruginosa ATCC ® 27853 ™ ([2]; 100 μg/ml) | Effects of Peptide Compounds on Pseudomonas aeruginosa ATCC ® 27853 ™ ([2]; 200 μg/ml) | Effects of Peptide Compounds on Pseudomonas aeruginosa ATCC ® 27853 ™ ([2]; 400 μg/ml) | further results
RRRRNQGRHFCGGALIHARFVMTAASCFQR (also: cyclized) [SEQ ID NO: 18 (Cyclized)] | 37.9 | 38.0 | 49.3 | 52.6 | 59.6 | 82.0 | 100.0 | 100.0 | 100.0 | 100.0 | 100.0 | 100.0 | 100.0 | Effects of Peptide Compounds on Pseudomonas aeruginosa ATCC ® 27853 ™ ([2]; 0.78 μg/ml): 99.6; Effects of Peptide Compounds on Pseudomonas aeruginosa ATCC ® 27853 ™ ([2]; 1.56 μg/ml): 98.4; Effects of Peptide Compounds on Pseudomonas aeruginosa ATCC ® 27853 ™ ([2]; 3.125 μg/ml): 100.0
RRRRNQGRHFCGGALIHARFVMTAASCFQR (5-arginine peptide derivative of CAP37 peptide) [SEQ ID NO: 18 (Linear)] |  |  |  |  |  |  |  |  |  |  |  |  |  | Effects of Peptide Compounds on Escherichia coli ATCC ® 25922 ™ ([1]; 43.8 μg/ml): 93.9; Effects of Peptide Compounds on Escherichia coli ATCC ® 25922 ™ ([1]; 87.6 μg/ml): 95.3; Effects of Peptide Compounds on Escherichia coli ATCC ® 25922 ™ ([1]; 175.2 μg/ml): 97.1; Effects of Peptide Compounds on Escherichia coli ATCC ® 25922 ™ ([1]; 262.8 μg/ml): 100.0; Effects of Peptide Compounds on Pseudomonas aeruginosa ATCC ® 27853 ™ ([2]; 0.137 μg/ml): 25.4; Effects of Peptide Compounds on Pseudomonas aeruginosa ATCC ® 27853 ™ ([2]; 0.5475 μg/ml): 63.2; Effects of Peptide Compounds on Pseudomonas aeruginosa ATCC ® 27853 ™ ([2]; 2.19 μg/ml): 87.9; Effects of Peptide Compounds on Pseudomonas aeruginosa ATCC ® 27853 ™ ([2]; 8.76 μg/ml): 99.5; Effects of Peptide Compounds on Pseudomonas aeruginosa ATCC ® 27853 ™ ([2]; 87.6 μg/ml): 100.0
CC[C@H](C)[C@H](NC(=O)[C@H](CC(C)C)NC(=O)[C@H](C)NC(=O)CNC(=O)CNC(=O)[C@H](CS)NC(=O)[C@H](Cc1ccccc1)NC(=O)[C@H](Cc1c[nH]cn1)NC(=O)[C@H](CCCNC(=N)N)NC(=O)CNC(=O)[C@H](CCC(N)=O)NC(=O)[C@H](CC(N)=O)NC(=O)COCCOCCNC(=O)COCCOCCN)C(=O)N[C@@H](Cc1c[nH]cn1)C(=O)N[C@@H](C)C(=O)N[C@@H](CCCNC(=N)N)C(=O)N[C@@H](Cc1ccccc1)C(=O)N[C@H](C(=O)N[C@@H](CCSC)C(=O)N[C@H](C(=O)N[C@@H](C)C(=O)N[C@@H](C)C(=O)N[C@@H](CO)C(=O)N[C@@H](CO)C(=O)N[C@@H](Cc1ccccc1)C(=O)N[C@@H](CCC(N)=O)C(=O)O)[C@@H](C)O)C(C)C [BCC03-MP] (H-[AEEA][AEEA]NQGRHFCGGALIHARFVMTAASSFQ-OH; N-terminus and C-terminus assumed) | 21.8 | 27.2 | 24.6 | 27.5 | 46.0 | 58.2 | −38.2 | -45.6 | −27.3 | −2.9 | 44.0 | 74.4 | 92.8 | Effects of Peptide Compounds on Escherichia coli ATCC ® 25922 ™ ([1]; 6.25 μg/ml): 6.4
CC(C)C[C@H](NC(=O)[C@H](CCCNC(=N)N)NC(=O)CNC(=O)CNC(=O)[C@H](CO)NC(=O)[C@H](Cc1c[nH]cn1)NC(=O)[C@H](CCC(N)=O)NC(=O)[C@H](CO)NC(=O)CNC(=O)[C@H](Cc1c[nH]c2ccccc12)NC(=O)CNC(=O)[C@H](C)NC(=O)[C@@H](NC(=O)[C@H](CCC(N)=O)NC(=O)[C@H](CS)NC(=O)[C@H](CCCNC(=N)N)NC(=O)[C@@H](NC(=O)CNC(=O)[C@H](CCCNC(=N)N)NC(=O)[C@H](CCCNC(=N)N)NC(=O)[C@H](CCCNC(=N)N)NC(=O)[C@H](CCCNC(=N)N)NC(=O)COCCOCCNC(=O)COCCOCCN)[C@@H](C)O)C(C)C)C(=O)N[C@@H](CO)C(=O)N[C@@H](CCCNC(=N)N)C(=O)N[C@@H](Cc1ccccc1)C(=O)N1CCC[C@H]1C(=O)N[C@@H](CCCNC(=N)N)C(=O)N[C@@H](Cc1ccccc1)C(=O)N[C@H](C(=O)N[C@@H](CC(N)=O)C(=O)N[C@H](C(=O)N[C@@H](CCCNC(=N)N)C(=O)O)C(C)C)C(C)C [120-146QH-5RMP] (H-[AEEA][AEEA]RRRRGTRCQVAGWGSQHSGGRLSRFPRFVNVR-OH) |  |  |  |  |  |  |  |  |  |  |  |  |  | Mean Wound Healing (%) (swine skin; Day 0): 0.0%; Mean Wound Healing (%) (swine skin; Day 3): 22.5%; Mean Wound Healing (%) (swine skin; Day 5): 34.1%; Mean Wound Healing (%) (swine skin; Day 7): 64.1%; Mean Wound Healing (%) (swine skin; Day 10): 93.7%; Mean Wound Healing (%) (swine skin; Day 14): 98.0%; histology: epidermal resurfacing and maturation vs saline control (swine skin; day 14 post-wounding): greater extent of epidermal resurfacing and maturation of the epidermis; dermal wound healing vs saline (swine skin; topically at 3 mg/ml, over 14 days): accelerate dermal wound healing; Histopathology Results, Mean Angiogenesis (swine skin; [3]): 1.3; Histopathology Results, Mean Epithelization (swine skin; [3]): 4.0; Histopathology Results, Mean Granulation (swine skin; [3]): 4.0; Histopathology Results, Mean Inflammation (swine skin; [3]): 0.5; reduction in CFU (FIG. 14) ([2]; pH 5.5, 180 minutes, 75 μg/ml): ~6 log
